Results taken from patent US20240238290A1, “USE OF COMPLEMENT FACTOR D INHIBITOR FOR TREATMENT OF GENERALIZED MYASTHENIA GRAVIS” (Alexion Pharmaceuticals, Inc., priority 2021, published 2024).

Legend:
[1] = Phase 1 single ascending and multiple ascending dose studies, PK; assay type: in vivo, human; conditions: for PK exposures versus dose: healthy volunteers
[2] = test system: complement alternative pathway (AP) activity; assay: AP inhibition in the AP Wieslab assay (PD), Phase 1 healthy volunteer studies; assay type: in vivo, human
Experimental: (§1) In addition, both dosage regimens provided complete (>90%) and sustained inhibition of AP activity throughout the 12-hour dosing interval. Therefore, 120 mg BID is selected as the minimum therapeutic dosage.

[3] = Safety and safety margin of multiple dose regimens versus NOAEL exposures from nonclinical chronic toxicology studies; assay type: in vivo, human; conditions: multiple dose study
Experimental: as §1

[4] = test system: plasma Bb; assay: Biomarkers of AP activity in vivo (plasma Bb levels)
[5] = molecular target: FD (complement factor D) (Homo sapiens, UniProt P00746); assay: Inhibition of factor D
Sequence of FD (complement factor D) (P00746 26-253): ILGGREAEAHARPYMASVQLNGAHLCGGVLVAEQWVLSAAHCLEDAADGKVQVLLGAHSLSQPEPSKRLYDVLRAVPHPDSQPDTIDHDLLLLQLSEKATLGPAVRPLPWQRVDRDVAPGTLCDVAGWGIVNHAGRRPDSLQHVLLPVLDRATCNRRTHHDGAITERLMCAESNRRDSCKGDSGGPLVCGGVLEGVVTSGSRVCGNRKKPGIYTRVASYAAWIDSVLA

For `CC(=O)c1nn(CC(=O)N2[C@H](C(=O)Nc3nc(Br)ccc3C)C[C@@]3(C)C[C@@H]23)c2ccc(-c3cnc(C)nc3)cc12` [Compound 1, vemircopan], the “variability in the PK and PD data and PK/PD relationship” value ([1]; Phase 1 healthy volunteers) was “large variabilities”, the “PK exposures versus dose” value ([1]; following single doses) was “increased dose proportionally” and the “PK exposures versus dose” value ([1]; multiple doses at steady state, 40 mg BID to 200 mg BID) was “greater than dose proportional manner”. The inhibition at 120 mg ([2]; Homo sapiens, 120 mg BID, sustained throughout the 12-hour dosing interval) was > 90%, the inhibition at 200 mg ([2]; Homo sapiens, 200 mg BID, sustained throughout the 12-hour dosing interval) was > 90% and the “PD activity as determined by AP inhibition in the AP Wieslab assay” value ([2]; healthy volunteers, Phase 1) was “increased with increasing exposure”. The “inhibition of complement AP activity in vivo” value ([2]; in vivo) was “dose dependent inhibition”, the “safety and effectiveness of dosage regimen” value ([3]; 120 mg BID) was “safe and effective” and the “safety margin in AUC0-24 over exposures at NOAEL” value ([3]; 120 mg BID) was ≥ 10 fold. The “safety margin in Cmax over exposures at NOAEL” value ([3]; 120 mg BID) was ≥ 10 fold, the “safety and effectiveness of dosage regimen” value ([3]; 200 mg BID) was “safe and effective” and the “safety margin in AUC0-24 over exposures at NOAEL” value ([3]; 200 mg BID) was ≥ 10 fold. The “safety margin in Cmax over exposures at NOAEL” value ([3]; 200 mg BID) was ≥ 10 fold, the “plasma Bb levels following administration” value [4] was “significant dose-dependent reductions” and the “inhibition of FD” value [5] was “potent inhibitor”.
